Test results: ChEMBL document CHEMBL5550161, “Discovery of novel small molecules targeting the USP21/JAK2/STAT3 axis for the treatment of triple-negative breast cancer” (Eur J Med Chem, 2024)
Active and inactive are the calls of the source. No cut-off for these calls is given here.

Columns and labels:
MDA-MB-231 [1] = test: Induction of apoptosis in human MDA-MB-231 cells assessed as ROS production rate at 0.2 uM incubated for 24 hrs by DCFH-DA staining based flow cytometry (reference value: 0.28 %); assay type: functional
HCC1806 [2] = test: Anti-proliferative activity against human HCC1806 cells assessed as reduction in EdU-positive cells at 0.2 uM; assay type: functional, cell-based
Hs-578T = test: Anti-proliferative activity against human Hs-578T cells assessed as cell growth inhibition incubated for 72 hrs by MTT assay; assay type: functional, cell-based
MDA-MB-231 [3] = test: Induction of apoptosis in human MDA-MB-231 cells assessed as early apoptotic cells at 0.8 uM incubated for 24 hrs by Annexin V-FITC/PI staining based flow cytometry (reference value: 1.16 %); assay type: functional
HCC1806 [4] = test: Antitumor activity against human HCC1806 cells xenografted in Balb/c mouse assessed as decrease in Ki67 level at 40 to 60 mg/kg, ip bid measured after 14 days by IHC analysis; assay type: functional, organism-based; settings: dose 40-60 mg/kg, time 14.0 day
HCC1806 [5] = test: Downregulation of USP21 level in human HCC1806 cells at 0.1 to 0.4 uM incubated for 24 hrs by Western blot analysis; assay type: functional, cell-based; settings: dose 0.1-0.4 µM
HCC1806 [6] = test: Induction of apoptosis in human HCC1806 cells assessed as viable cells at 1.6 uM incubated for 24 hrs by Annexin V-FITC/PI staining based flow cytometry (reference value: 98.95 %); assay type: functional; settings: read-out: Activity
[7] = molecular target: Tyrosine-protein kinase JAK2 (Homo sapiens, UniProt O60674); test: Induction of JAK2 degradation in human HCC1806 cells at 0.2 uM incubated for 18 to 72 hrs by Western blot analysis; assay type: cell-based; settings: time 18-72 hrs
Tyrosine-protein kinase JAK2, sequence (O60674 whole entry): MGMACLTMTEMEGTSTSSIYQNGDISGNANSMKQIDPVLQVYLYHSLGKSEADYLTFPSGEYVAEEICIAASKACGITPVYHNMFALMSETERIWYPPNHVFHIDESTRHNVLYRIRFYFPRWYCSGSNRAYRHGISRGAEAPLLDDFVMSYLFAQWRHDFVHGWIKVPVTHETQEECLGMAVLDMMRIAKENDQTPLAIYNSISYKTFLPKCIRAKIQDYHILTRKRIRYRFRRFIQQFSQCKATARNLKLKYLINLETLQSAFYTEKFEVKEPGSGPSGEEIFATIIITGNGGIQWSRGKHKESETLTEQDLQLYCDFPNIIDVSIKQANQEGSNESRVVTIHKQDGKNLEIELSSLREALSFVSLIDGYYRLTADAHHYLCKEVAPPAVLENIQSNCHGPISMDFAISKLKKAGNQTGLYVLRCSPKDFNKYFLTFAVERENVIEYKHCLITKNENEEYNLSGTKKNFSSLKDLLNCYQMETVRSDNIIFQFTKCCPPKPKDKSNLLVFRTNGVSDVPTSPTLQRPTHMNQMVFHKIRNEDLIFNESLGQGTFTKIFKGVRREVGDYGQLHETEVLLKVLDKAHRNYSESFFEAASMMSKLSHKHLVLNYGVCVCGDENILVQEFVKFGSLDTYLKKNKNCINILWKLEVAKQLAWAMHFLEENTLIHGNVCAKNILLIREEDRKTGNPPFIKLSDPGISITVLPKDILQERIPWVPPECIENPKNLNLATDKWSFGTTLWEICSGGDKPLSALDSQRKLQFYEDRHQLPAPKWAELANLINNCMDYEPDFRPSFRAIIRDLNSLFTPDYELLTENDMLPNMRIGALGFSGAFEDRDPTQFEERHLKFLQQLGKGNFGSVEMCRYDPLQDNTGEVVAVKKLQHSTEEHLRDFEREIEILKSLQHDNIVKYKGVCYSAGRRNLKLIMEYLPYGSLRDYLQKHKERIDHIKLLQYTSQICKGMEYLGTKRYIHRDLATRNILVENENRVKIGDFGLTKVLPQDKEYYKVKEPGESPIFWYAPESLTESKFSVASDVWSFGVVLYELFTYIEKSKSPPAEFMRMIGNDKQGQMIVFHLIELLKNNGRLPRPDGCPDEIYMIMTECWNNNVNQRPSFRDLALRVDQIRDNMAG

MDA-MB-231 [8] = test: Induction of cell cycle arrest at G2/M phase in human MDA-MB-231 cells at 0.1 to 0.4 uM incubated for 24 hrs; assay type: functional, cell-based; settings: dose 0.1-0.4 µM
MDA-MB-231 [9] = test: Induction of apoptosis in human MDA-MB-231 cells assessed as viable cells at 0.1 uM incubated for 24 hrs by Annexin V-FITC/PI staining based flow cytometry (reference value: 97.54 %); assay type: functional; settings: read-out: Activity
HCC1806 [10] = test: Inhibition of cell invasion in human HCC1806 cells; assay type: functional, cell-based; settings: dose 0.05-2 µM
HCC1806 [11] = test: Induction of apoptosis in human HCC1806 cells assessed as late apoptotic cells at 0.8 uM incubated for 24 hrs by Annexin V-FITC/PI staining based flow cytometry (reference value: 0.23 %); assay type: functional
HCC1806 [12] = test: Induction of apoptosis in human HCC1806 cells assessed as late apoptotic cells at 0.2 uM incubated for 24 hrs by Annexin V-FITC/PI staining based flow cytometry (reference value: 0.23 %); assay type: functional
HCC1806 [13] = test: Induction of apoptosis in human HCC1806 cells assessed as decrease in Bcl-2 level by Western blot analysis; assay type: functional, cell-based; settings: dose 0.1-0.4 µM
MDA-MB-231 [14] = test: Induction of apoptosis in human MDA-MB-231 cells assessed as decrease in JAK1 level by Western blot analysis; assay type: functional, cell-based; settings: dose 0.1-0.4 µM
[15] = AUC (0 to infinity) in Sprague-Dawley rat at 4 mg/kg, ip; assay type: ADME, organism-based; settings: in vivo
MDA-MB-231 [16] = test: Induction of apoptosis in human MDA-MB-231 cells assessed as late apoptotic cells at 1.6 uM incubated for 24 hrs by Annexin V-FITC/PI staining based flow cytometry (reference value: 1.23 %); assay type: functional
HCC1806 [17] = test: Induction of apoptosis in human HCC1806 cells assessed as viable cells at 0.2 uM incubated for 24 hrs by Annexin V-FITC/PI staining based flow cytometry (reference value: 98.95 %); assay type: functional; settings: read-out: Activity
[18] = Cmax in Sprague-Dawley rat at 4 mg/kg, ip; assay type: ADME, organism-based; settings: in vivo
HCC1806 [19] = test: Induction of apoptosis in human HCC1806 cells assessed as viable cells at 0.8 uM incubated for 24 hrs by Annexin V-FITC/PI staining based flow cytometry (reference value: 98.95 %); assay type: functional; settings: read-out: Activity
HCC1806 [20] = test: Induction of apoptosis in human HCC1806 cells assessed as late apoptotic cells at 0.1 uM incubated for 24 hrs by Annexin V-FITC/PI staining based flow cytometry (reference value: 0.23 %); assay type: functional
HCC1806 [21] = test: Anti-proliferative activity against human HCC1806 cells assessed as cell survival; assay type: functional; settings: dose < 0.4 µM; time 24 hrs
HCC1806 [22] = test: Induction of apoptosis in human HCC1806 cells assessed as ROS production rate at 0.4 uM incubated for 24 hrs by DCFH-DA staining based flow cytometry (reference value: 0.23 %); assay type: functional
MDA-MB-231 [23] = test: Anti-proliferative activity against human MDA-MB-231 cells assessed as cell growth inhibition incubated for 72 hrs by MTT assay; assay type: functional, cell-based; settings: MDA-MB-231, 72 h
HCC1806 [24] = test: Induction of apoptosis in human HCC1806 cells assessed as decrease in JAK1 level by Western blot analysis; assay type: functional, cell-based; settings: dose 0.1-0.4 µM
HCC1806 [25] = test: Antitumor activity against human HCC1806 cells xenografted in Balb/c mouse assessed as decrease in JAK2 level at 40 to 60 mg/kg, ip bid measured after 14 days by immunofluorescence based analysis; assay type: functional, organism-based; settings: dose 40-60 mg/kg, time 14.0 day

COc1cc(Nc2cc(F)ccc2C(=O)NCCc2c[nH]c3c(F)ccc(F)c23)cc(OC)c1OC
Activity (MDA-MB-231 [1]): 1.06%
Activity (HCC1806 [2]): Active
IC50 (Hs-578T): 0.59 µM
Activity (MDA-MB-231 [3]): 3.18%
Activity (HCC1806 [4]): Active
Activity (HCC1806 [5]): Active
viability at 1.6 µM (HCC1806 [6]): 92.9%
Activity [7]: Active
Activity (MDA-MB-231 [8]): Active
viability at 0.1 µM (MDA-MB-231 [9]): 96.9%
inhibition (HCC1806 [10]): Active
Activity (HCC1806 [11]): 1.48%
Activity (HCC1806 [12]): 0.45%
Activity (HCC1806 [13]): Active
Activity (MDA-MB-231 [14]): Active
AUC(0-inf) [15]: 1970 ng·h/mL
Activity (MDA-MB-231 [16]): 4.95%
viability at 0.2 µM (HCC1806 [17]): 98.1%
Cmax [18]: 229 ng/mL
viability at 0.8 µM (HCC1806 [19]): 94%
Activity (HCC1806 [20]): 0.29%
Survival (HCC1806 [21]): >80%
Activity (HCC1806 [22]): 5%
IC50 (MDA-MB-231 [23]): 0.19 µM
Activity (HCC1806 [24]): Active
Activity (HCC1806 [25]): Active
